The values that follow come from US10004732B2 (Novartis AG, priority 2014, dated 2018).

For one data set, the target named is PI 4-kinase beta (Homo sapiens, UniProt Q9UBF8). Kind of data set: Kinase Glo Luminescent Kinase Assay (Kglo), assay D. It is filed as biochemical. Conditions: read-out: Assay D PI4Kβ IC50. (Kinase-Glo measures the ATP left after a reaction by luminescence.)
A further data set addresses Vps34 (Homo sapiens, UniProt Q8NEB9). Description: Kinase Glo Luminescent Kinase Assay (Kglo), assay C. Conditions: read-out: Assay C VPS34 IC50. It is filed as biochemical.
Data set [1] concerns the target T1, PI 3-kinase delta (Homo sapiens, UniProt O00329). Kind of data set: TR-FRET Adapta assay, assay F. The following applies: read-out: Assay F PI3Kδ IC50. (In general: Time-resolved FRET reads energy transfer from a long-lived donor to a nearby acceptor.)
Target sequence in this assay (O00329 whole entry): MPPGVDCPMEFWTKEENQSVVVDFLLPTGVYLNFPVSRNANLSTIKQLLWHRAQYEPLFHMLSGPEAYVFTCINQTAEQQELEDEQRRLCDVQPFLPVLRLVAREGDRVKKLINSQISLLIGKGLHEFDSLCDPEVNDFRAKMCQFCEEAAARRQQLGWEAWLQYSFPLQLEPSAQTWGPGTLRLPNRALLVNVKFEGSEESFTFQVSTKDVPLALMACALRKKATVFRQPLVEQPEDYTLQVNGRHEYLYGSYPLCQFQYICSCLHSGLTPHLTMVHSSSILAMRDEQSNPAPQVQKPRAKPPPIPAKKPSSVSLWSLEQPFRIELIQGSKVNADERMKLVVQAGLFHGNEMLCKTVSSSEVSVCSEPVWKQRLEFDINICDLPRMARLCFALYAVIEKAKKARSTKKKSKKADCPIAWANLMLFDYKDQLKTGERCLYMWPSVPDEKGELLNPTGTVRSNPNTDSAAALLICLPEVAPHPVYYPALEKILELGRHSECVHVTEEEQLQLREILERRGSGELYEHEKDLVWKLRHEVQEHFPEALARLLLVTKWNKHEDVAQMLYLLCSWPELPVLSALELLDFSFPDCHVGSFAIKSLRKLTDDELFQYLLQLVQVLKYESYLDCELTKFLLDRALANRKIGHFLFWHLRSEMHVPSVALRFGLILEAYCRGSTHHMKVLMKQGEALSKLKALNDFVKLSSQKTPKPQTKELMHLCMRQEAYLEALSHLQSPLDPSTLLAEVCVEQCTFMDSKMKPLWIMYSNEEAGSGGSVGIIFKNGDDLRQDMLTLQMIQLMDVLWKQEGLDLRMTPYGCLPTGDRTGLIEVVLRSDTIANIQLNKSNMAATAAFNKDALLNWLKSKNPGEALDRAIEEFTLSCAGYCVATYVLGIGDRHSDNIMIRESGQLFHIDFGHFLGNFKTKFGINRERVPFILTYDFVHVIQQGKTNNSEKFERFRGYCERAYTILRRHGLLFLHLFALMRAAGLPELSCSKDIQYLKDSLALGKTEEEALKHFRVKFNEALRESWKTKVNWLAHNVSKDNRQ
Target sequence in this assay (P27986 461-568 partner): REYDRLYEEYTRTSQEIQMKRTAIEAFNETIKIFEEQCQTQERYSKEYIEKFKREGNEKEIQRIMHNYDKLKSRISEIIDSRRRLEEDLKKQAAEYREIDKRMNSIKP
A further data set concerns the target mTOR (Homo sapiens, UniProt P42345). Description: Lanthascreen kinase binding assay, assay G. The following applies: read-out: Assay G mTOR IC50.
Data set [2] concerns the target T2, PI 3-kinase alpha (Homo sapiens, UniProt P42336). Description: Kinase Glo Luminescent Kinase Assay (Kglo), assay A. The format is biochemical. The following applies: read-out: Assay A PI3Kα IC50.
Target sequence in this assay (P42336 whole entry): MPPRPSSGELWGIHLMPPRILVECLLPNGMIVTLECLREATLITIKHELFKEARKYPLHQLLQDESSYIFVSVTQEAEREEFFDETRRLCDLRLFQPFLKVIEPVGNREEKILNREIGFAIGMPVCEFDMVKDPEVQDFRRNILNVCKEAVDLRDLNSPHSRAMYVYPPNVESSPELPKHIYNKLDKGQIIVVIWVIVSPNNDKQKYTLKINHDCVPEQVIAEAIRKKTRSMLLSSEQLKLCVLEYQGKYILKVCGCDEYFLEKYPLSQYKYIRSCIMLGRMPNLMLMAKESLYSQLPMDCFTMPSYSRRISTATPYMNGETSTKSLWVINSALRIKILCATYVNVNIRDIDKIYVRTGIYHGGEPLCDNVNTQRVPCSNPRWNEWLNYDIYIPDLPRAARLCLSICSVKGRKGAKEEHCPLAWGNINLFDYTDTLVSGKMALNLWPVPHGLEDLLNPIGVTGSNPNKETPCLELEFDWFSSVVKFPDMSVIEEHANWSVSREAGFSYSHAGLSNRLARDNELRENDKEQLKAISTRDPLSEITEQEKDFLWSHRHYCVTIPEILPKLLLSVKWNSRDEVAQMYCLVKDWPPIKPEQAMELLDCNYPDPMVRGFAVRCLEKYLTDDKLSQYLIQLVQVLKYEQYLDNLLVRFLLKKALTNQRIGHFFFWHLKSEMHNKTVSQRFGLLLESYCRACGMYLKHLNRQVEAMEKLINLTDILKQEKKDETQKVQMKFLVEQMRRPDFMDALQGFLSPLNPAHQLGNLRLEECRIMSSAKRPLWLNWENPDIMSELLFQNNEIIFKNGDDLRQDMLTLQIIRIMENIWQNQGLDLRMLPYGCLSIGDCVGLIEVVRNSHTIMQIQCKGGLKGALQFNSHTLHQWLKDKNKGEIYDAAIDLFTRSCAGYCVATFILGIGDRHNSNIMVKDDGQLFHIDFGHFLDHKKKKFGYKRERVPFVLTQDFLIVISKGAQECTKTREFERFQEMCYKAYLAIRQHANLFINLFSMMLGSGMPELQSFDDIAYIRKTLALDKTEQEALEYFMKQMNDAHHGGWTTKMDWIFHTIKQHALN
Data set [3] has as its target T3, PI 3-kinase beta (Homo sapiens, UniProt P42338). Description: Kinase Glo Luminescent Kinase Assay (Kglo), assay B. The format is biochemical. The following applies: read-out: Assay B PI3Kβ IC50.
The target of data set [4] is T4, PI 3-kinase gamma (Homo sapiens, UniProt P48736). Description: Cellular U937 AKT assay K1 (MSD). It is filed as cell-based. Conditions: U937 cells, K1 format; read-out: Assay K1 PI3Kγ IC50.
The target of data set [5] is T4, PI 3-kinase gamma. Kind of data set: TR-FRET Adapta assay, assay E. The following applies: read-out: Assay E PI3Kγ IC50. The format is biochemical.
Data set [6] relates to IL-8-induced neutrophil shape change in human whole blood. Description: Whole blood neutrophil shape change assay (L). The format is cell-based. Conditions: Homo sapiens, Neutrophil, IL-8, human whole blood, read-out: Assay L WBSC IC50.
Data set [7] deals with T3, PI 3-kinase beta. Description: Cellular assay I1, p-Akt (S473) in Rat-1 cells, Surefire format. The following applies: non-asterisked data: version I1 (Surefire format), Rat-1 cells; read-out: Assay I PI3Kβ IC50. The format is cell-based.
From the text: Cellular Assays for PI 3-Kinase Alpha (H1), Beta (I1) and Delta (J1): Surefire Format
AlphaScreen (Amplified Luminescent Proximity Homogeneous Assay, ALPHA, Perkin Elmer) is a non-radioactive bead-based proximity assay technology to study biomolecular interactions in a homogenous microtiter plate format. The brand name SureFire denotes AlphaScreen assays that are adapted to quantify the phosphorylation of endogenous cellular proteins in cell lysates, by using matched antibody pairs, which consist of an anti-phospho-kinase and an anti-kinase antibody. The assay allows characterization of kinase signaling in cells as well as measurement of kinase inhibitor effects.
Using Rat-1 cells stably expressing myr-HA-tagged versions of the human PI3Kdelta, PI3Kalpha, or PI3Kbeta p110 catalytic subunit isoforms, the assay was developed as a two-plate protocol in a 384-well format.
For compound testing, the cells were seeded at a density of 4000 (Rat-1_PI3Kdelta), 7500 (Rat-1_PI3Kalpha), or 6200 (Rat-1_PI3Kbeta) cells in 20 μl complete growth medium into cell culture treated 384-well plates and were grown at 37° C./5% CO2/90% humidity for 24 h. Shortly before compound transfer, the complete medium was removed, 30 μl assay buffer (DMEM high glucose, 1×MEM NEAA, 10 mM HEPES, 2 mM L-glutamine, 0.1% (w/v) BSA) was added and 10 μl of the compound predilutions were transferred to the cells.
The target of data set [8] is T2, PI 3-kinase alpha. Kind of data set: Cellular assay H1, p-Akt (S473) in Rat-1 cells, Surefire format. It is filed as cell-based. The following applies: non-asterisked data: version H1 (Surefire format), Rat-1 cells; read-out: Assay H PI3Kα IC50.
Data set [9] has as its target T1, PI 3-kinase delta. Kind of data set: Cellular assay J1, p-Akt (S473) in Rat-1 cells, Surefire format. It is filed as cell-based. Conditions: non-asterisked data: version J1 (Surefire format), Rat-1 cells; read-out: Assay J PI3Kδ IC50.
Data set [10] in a line: Microsomal clearance assay (M). The following applies: intrinsic clearance in rat liver microsomes. For orientation: Microsomes from liver hold many membrane-bound enzymes, among them those of drug oxidation.
Method: The experiments were performed in 96-well glass plates at 37° C. on an automated Tecan EVO platform. Test compounds at a concentration of 10 mM in pure DMSO were diluted 1:1000 in water to 10 μM. […] Reactions were initiated by the addition of 150 μL of a cofactor solution containing 2 mM NADPH.

Structures can show the parent of a compound that is named as a salt. A value given as a limit tells only on which side of the number the result lay.

T4 sequence (P48736 whole entry): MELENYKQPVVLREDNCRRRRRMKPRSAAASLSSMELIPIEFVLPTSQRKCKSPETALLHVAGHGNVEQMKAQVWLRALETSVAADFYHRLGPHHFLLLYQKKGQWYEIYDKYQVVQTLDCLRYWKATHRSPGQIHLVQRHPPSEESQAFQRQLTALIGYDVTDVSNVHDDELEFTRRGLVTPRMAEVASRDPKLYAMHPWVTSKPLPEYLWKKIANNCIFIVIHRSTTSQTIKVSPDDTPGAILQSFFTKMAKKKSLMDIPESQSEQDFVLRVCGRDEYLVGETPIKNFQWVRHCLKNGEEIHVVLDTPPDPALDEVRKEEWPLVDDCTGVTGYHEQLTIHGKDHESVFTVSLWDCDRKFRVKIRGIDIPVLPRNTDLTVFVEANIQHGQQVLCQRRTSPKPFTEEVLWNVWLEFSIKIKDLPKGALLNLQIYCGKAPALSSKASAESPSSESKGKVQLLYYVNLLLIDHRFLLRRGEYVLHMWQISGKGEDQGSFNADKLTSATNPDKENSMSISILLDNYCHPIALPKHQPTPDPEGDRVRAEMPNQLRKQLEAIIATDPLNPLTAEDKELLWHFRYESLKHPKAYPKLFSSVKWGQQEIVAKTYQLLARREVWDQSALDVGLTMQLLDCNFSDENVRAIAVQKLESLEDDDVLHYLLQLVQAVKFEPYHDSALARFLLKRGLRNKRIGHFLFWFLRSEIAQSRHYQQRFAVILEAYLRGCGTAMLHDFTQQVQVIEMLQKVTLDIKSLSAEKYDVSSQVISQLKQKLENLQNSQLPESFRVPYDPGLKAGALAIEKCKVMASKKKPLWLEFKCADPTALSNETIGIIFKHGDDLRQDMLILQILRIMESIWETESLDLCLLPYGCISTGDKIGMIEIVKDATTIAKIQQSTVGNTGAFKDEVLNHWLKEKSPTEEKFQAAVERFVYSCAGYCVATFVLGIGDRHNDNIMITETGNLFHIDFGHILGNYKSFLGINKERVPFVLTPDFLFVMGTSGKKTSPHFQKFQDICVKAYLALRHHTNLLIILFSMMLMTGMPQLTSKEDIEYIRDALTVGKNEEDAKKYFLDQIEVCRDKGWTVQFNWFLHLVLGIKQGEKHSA
PI 4-kinase beta, sequence (Q9UBF8 whole entry): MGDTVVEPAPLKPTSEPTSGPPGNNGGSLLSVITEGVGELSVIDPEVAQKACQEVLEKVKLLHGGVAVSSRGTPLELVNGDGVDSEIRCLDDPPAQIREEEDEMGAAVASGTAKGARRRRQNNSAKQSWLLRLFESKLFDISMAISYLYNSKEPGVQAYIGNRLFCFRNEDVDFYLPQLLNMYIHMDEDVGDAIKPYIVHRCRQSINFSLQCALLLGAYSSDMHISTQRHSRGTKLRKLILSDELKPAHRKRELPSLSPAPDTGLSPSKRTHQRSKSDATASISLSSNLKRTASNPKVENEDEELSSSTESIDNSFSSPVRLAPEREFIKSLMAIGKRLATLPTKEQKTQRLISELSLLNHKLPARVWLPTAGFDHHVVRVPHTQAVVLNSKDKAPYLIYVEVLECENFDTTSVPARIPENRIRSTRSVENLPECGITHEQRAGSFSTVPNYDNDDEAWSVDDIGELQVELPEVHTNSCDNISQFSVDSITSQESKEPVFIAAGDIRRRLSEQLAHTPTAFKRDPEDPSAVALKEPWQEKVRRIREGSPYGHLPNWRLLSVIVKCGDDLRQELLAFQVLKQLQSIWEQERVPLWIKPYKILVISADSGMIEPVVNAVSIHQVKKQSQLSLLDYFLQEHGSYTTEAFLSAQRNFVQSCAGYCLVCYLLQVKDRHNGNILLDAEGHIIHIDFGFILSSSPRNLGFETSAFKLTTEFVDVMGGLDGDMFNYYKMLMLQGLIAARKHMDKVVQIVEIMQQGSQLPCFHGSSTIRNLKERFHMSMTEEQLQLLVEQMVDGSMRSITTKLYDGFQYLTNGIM
Vps34, sequence (Q8NEB9 whole entry, species assumed): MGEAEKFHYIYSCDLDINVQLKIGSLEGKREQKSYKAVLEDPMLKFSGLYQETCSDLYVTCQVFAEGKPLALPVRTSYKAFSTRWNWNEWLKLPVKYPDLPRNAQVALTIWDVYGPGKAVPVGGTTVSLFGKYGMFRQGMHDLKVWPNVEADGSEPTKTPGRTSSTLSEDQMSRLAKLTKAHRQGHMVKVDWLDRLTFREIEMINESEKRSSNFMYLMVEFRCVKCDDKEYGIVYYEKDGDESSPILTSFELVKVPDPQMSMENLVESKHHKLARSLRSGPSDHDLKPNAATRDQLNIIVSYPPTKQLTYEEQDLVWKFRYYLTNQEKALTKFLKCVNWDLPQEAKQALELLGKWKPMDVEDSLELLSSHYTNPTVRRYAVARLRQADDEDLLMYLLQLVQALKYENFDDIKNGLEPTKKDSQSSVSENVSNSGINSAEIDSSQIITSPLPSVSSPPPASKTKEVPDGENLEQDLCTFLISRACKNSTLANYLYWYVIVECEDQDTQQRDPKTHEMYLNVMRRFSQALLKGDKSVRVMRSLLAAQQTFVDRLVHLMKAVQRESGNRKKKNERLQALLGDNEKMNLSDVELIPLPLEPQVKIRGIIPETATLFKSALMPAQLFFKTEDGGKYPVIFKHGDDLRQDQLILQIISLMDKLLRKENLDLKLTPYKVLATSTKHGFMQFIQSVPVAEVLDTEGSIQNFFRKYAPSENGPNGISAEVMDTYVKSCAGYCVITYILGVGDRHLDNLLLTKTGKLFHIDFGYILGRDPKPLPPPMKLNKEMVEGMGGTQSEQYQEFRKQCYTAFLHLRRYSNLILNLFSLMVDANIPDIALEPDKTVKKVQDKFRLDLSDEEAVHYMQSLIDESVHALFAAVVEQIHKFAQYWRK
Method for mTOR: Lanthascreen™ Kinase Binding Assay for mTOR (G)
Binding of an inhibitor to the kinase competes for binding with the tracer, resulting in a loss of FRET.
50 nL of compound dilutions were dispensed onto white 384-well small volume polystyrene plate.

Broadly, the IC50 is the concentration that inhibits the measured activity by half. Regarding `Cc1ccc(S(=O)(=O)NC[C@H]2CCCO2)cc1-c1cnc(N)c(-n2cncn2)n1` [Example 127.14], the IC50 on PI 4-kinase beta was 8450 nM; at Vps34, over 10000 nM; on PI 3-kinase delta [1] it was 900 nM; on mTOR, 9000 nM; on PI 3-kinase alpha [2] it was 920 nM; on PI 3-kinase beta [3], 2600 nM. In addition, the values for the half-maximal inhibitory concentration (IC50) (at PI 3-kinase gamma [4]; on PI 3-kinase gamma [5]; in data set [6]) were 645 nM, 69 nM and 1790 nM, respectively.
For the compound `Cc1ccc(S(=O)(=O)NCC2CCCOC2)cc1-c1cnc(N)c(-n2cncn2)n1` (stereo not drawn) [Example 127.19], the IC50 at PI 4-kinase beta is 3900 nM; on Vps34, over 10000 nM; at PI 3-kinase delta [1] it was 620 nM; on mTOR, over 10000 nM; on PI 3-kinase alpha [2] it was 260 nM; at PI 3-kinase beta [3], 1300 nM. Moreover, the IC50 at PI 3-kinase gamma [4] was 153 nM; at PI 3-kinase gamma [5], 61 nM; in [6], 1620 nM.
In the case of `Cc1ccc(S(=O)(=O)NC[C@H]2CCOC2)cc1-c1cnc(N)c(-n2cncn2)n1` [Example 127.27], the IC50 at PI 4-kinase beta was 8700 nM; at Vps34 it was over 10000 nM; on PI 3-kinase delta [1], 790 nM; on mTOR it was 9600 nM; at PI 3-kinase alpha [2] it was 200 nM; at PI 3-kinase beta [3], 1800 nM. Also, the half-maximal inhibitory concentration (IC50) is 242 nM at PI 3-kinase gamma [4], 26 nM at PI 3-kinase gamma [5] and 1090 nM in data set [6].
Consider `Cc1ccc(S(=O)(=O)NCCC2(O)CCCC2)cc1-c1cnc(N)c(-n2cncn2)n1` [Example 127.36], for which the IC50 at PI 4-kinase beta was 5300 nM; on Vps34, over 10000 nM; at PI 3-kinase delta [1], 790 nM; on mTOR, 7600 nM; at PI 3-kinase alpha [2] it was 190 nM; on PI 3-kinase beta [3], 1900 nM. Moreover, the figures for the IC50 (on PI 3-kinase gamma [4]; on PI 3-kinase gamma [5]; in data set [6]) were 126 nM, 24 nM and 3850 nM, respectively.
On to `Cc1ccc(S(=O)(=O)NCC(C)(F)F)cc1-c1cnc(N)c(-n2cncn2)n1` [Example 127.43], for which the IC50 on PI 4-kinase beta was 2900 nM; on Vps34, over 10000 nM; on PI 3-kinase delta [1], 3400 nM; on mTOR, 8800 nM; at PI 3-kinase alpha [2] it was 560 nM; on PI 3-kinase beta [3], 1700 nM. Besides, the IC50 on PI 3-kinase gamma [4] was found to be 275 nM; on PI 3-kinase gamma [5], 95 nM; in data set [6], 1640 nM.
As for `Cc1ccc(S(=O)(=O)NC[C@@H]2CCNC2)cc1-c1cnc(N)c(-n2cncn2)n1` [Example 127.57, (R)-3-(5-amino-6-(1H-1,2,4-triazol-1-yl)pyrazin-2-yl)-4-methyl-N-(pyrrolidin-3-ylmethyl)benzenesulfonamide trifluoroacetic acid salt], the IC50 on PI 4-kinase beta was 5900 nM; on Vps34 it was over 10000 nM; on PI 3-kinase beta [7], over 10000 nM; at PI 3-kinase delta [1], 760 nM; on mTOR, 5000 nM; at PI 3-kinase alpha [8] it was over 10000 nM. For the same compound, the IC50 on PI 3-kinase alpha [2] was 1400 nM; on PI 3-kinase beta [3], 730 nM; at PI 3-kinase delta [9], over 10000 nM; on PI 3-kinase gamma [5], 50 nM; in data set [6], 13800 nM. For the same compound, the “Assay M RLM CI(int)” value in data set [10] was found to be 21 µL/min/mg.
With `COCCCNS(=O)(=O)c1ccc(C)c(-c2cnc(N)c(-c3ccnc(C)c3)n2)c1` [Example 129.11, 3-(5-amino-6-(2-methylpyridin-4-yl)pyrazin-2-yl)-N-(3-methoxypropyl)-4-methylbenzenesulfonamide], the half-maximal inhibitory concentration (IC50) at PI 4-kinase beta was over 9100 nM; at Vps34, over 9100 nM; at PI 3-kinase beta [7], 8380 nM; on PI 3-kinase delta [1] it was 790 nM; at mTOR, over 9100 nM; at PI 3-kinase alpha [8], 2730 nM. Moreover, the IC50 at PI 3-kinase alpha [2] was 640 nM; at PI 3-kinase beta [3], over 9100 nM; on PI 3-kinase delta [9], 3330 nM; at PI 3-kinase gamma [5] it was 173 nM; in data set [6] it was 5680 nM. The “Assay M RLM CI(int)” value in [10] came out at 105 µL/min/mg.
